EP4722219A1 (Gan & Lee Pharmaceuticals Co., Ltd., priority 2023, dated 2024)

Legend:
Assay type in all cases: cell-based
[1] = test system: LNCaP cells; assay: Inhibition of LNCaP cell proliferation (WST-8); conditions: LNCaP FGC cells, 96 hours
Outline: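 WST-8 absorbance at 450 nm measured proliferation after 96 h of compound exposure at 37 °C, 5% CO2. Dosing used nine 5-fold dilutions from a 10 µM top final concentration, applied to cells cultured overnight beforehand.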

[2] = target: T1, AR protein (Homo sapiens, UniProt P10275); assay: AR protein degradation in VCaP cells (Western blot); conditions: 8h
T1 construct: host or cells: VCaP
T1 sequence (P10275 1-920): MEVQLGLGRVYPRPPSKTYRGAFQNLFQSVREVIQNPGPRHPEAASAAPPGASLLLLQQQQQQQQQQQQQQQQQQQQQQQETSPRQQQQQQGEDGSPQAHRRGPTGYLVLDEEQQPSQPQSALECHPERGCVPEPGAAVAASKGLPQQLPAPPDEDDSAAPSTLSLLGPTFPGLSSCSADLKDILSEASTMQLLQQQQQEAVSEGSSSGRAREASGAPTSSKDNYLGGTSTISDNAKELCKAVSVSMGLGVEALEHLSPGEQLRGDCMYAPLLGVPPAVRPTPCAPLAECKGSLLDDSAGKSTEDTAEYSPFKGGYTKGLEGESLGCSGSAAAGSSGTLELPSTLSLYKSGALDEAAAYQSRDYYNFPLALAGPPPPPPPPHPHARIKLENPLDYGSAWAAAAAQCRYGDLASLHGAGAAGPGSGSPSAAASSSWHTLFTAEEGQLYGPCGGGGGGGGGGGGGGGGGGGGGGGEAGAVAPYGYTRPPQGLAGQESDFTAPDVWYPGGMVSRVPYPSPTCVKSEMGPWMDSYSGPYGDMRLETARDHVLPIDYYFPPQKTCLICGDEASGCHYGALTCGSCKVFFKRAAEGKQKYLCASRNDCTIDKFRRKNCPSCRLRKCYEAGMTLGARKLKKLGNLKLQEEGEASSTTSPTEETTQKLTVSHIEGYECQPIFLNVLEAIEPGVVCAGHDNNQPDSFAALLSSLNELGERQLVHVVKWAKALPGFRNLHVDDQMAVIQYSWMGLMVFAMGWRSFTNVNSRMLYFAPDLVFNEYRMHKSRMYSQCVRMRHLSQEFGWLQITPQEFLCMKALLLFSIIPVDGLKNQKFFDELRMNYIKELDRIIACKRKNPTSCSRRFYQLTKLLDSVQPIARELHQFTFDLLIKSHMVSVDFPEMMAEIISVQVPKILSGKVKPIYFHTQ
Outline: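 AR-positive VCaP human prostate cancer cells grown in DMEM with 10% FBS were plated in six-well plates at 3×10^5 cells/well and incubated overnight. Compounds were then added at 1 µL/well alongside a solvent control and incubated for 8h. Lysates in RIPA buffer with protease inhibitor were quantified by BCA and run by SDS-PAGE. AR was detected by Western blot, and degradation was calculated from band grayscale normalized to GAPDH.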

[3] = test system: VCaP cells; assay: Inhibition of VCaP cell proliferation (WST-8); conditions: 168 hours
Outline: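 Proliferation was read on day 9 as WST-8 absorbance at 450 nm after VCaP cells (15,000/well, DMEM/10% FBS, 37°C) were exposed from day 2 to compound at 9 points, 5-fold serial dilution, top final concentration 10 µM.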

Row | Compound | IC50 ([1]; Homo sapiens) | Degradation rate of AR protein in VCaP cells ([2]; 0.5 nM) | Degradation rate of AR protein in VCaP cells ([2]; 5 nM) | IC50 ([3]; Homo sapiens) | AR protein degradation rate at fixed concentration (%) at 0.0005 µM ([2]; 0.5 nM) | AR protein degradation rate at fixed concentration (%) at 0.005 µM ([2]; 5 nM) | IC50 [1] | IC50 [3]
1 | COc1cc(O[C@H]2C(C)(C)[C@H](NC(=O)c3ccc(N4CCC5(CC4)CC(N4CCC6(CC4)COc4cc7c(cc46)n(C)c(=O)n7C4CCC(=O)NC4=O)C5)cc3)C2(C)C)ccc1C#N (relative stereo) [A-P-21] | 8.23 µM | 57% | 71% | 2 nM |  |  |  | 
2 | Cn1c(=O)n(C2CCC(=O)NC2=O)c2cc3c(cc21)C1(CCN(CC2CCN(c4ccc(C(=O)N[C@H]5CC[C@H](Oc6ccc(C#N)c(Cl)c6)CC5)nn4)CC2)CC1)CO3 (stereo partly shown) [A-P-10] | 137 µM |  |  | 6 nM | 75% | 78% |  | 
3 | COc1cc(O[C@H]2C(C)(C)[C@H](NC(=O)c3ccc(N4CCC(F)(CN5CCC6(CC5)COc5c6ccc(C(=O)N[C@H]6CCC(=O)NC6=O)c5F)CC4)cc3)C2(C)C)ccc1C#N [A-P-84] | 0.11 µM | -14% | -17% | 490 nM |  |  |  | 
4 | (R)-3-((1-(4-(((S)-2-(3-chloro-4-cyanophenyl)-3-methyl-2,8-diazaspiro[4.5]decan-8-yl)phenyl)piperidin-4-yl)methyl)-N-(((S)-2,6-dioxopiperidin-3-yl)-1,2,3,4,4a,5-hexahydrobenzo[b]pyrazi no[1,2-d][1,4]oxazine-8-carboxamide [A-P-58] |  | 12% | 37% |  |  |  | 0.51 µM | 1830 nM
5 | Cn1c(=O)n(C2CCC(=O)NC2=O)c2cc3c(cc21)C1(CCN(C2CC4(CCN(c5ccc(C(=O)N[C@H]6CC[C@H](Oc7ccc(C#N)c(Cl)c7)CC6)nn5)CC4)C2)CC1)CO3 (relative stereo) [A-P-12, N-((1r,4r)-4-(3-chloro-4-cyanophenoxy)cyclohexy 1)-6-(2-(3-(2,6-dioxopiperidin-3-yl)-1-methyl-2-oxo-2,3-dihydro-1H,6H-spiro[benzofuro[5,6-d]imidazole-7,4'-piperidin]-1'-yl)-7-azaspiro[3.5]nonan-7-yl)pyridazine-3-carboxamide] | 8.11 µM | 88% | 88% | 0.023 nM |  |  |  | 
6 | COc1cc(O[C@H]2C(C)(C)[C@H](NC(=O)c3ccc(N4CCC(CN5CC6(CCC7(CC6)COc6c7ccc7c6CN(C6CCC(=O)NC6=O)C7=O)C5)CC4)cc3)C2(C)C)ccc1C#N (relative stereo) [A-P-3] | 3.43 µM | 53% | 87% | 0.017 nM |  |  |  | 
7 | N#Cc1ccc(O[C@H]2CC[C@H](NC(=O)c3ccc(N4CCC(N5CC6(CCC7(CC6)COc6c7ccc7c6CN(C6CCC(=O)NC6=O)C7=O)C5)CC4)nn3)CC2)cc1Cl (relative stereo) [A-P-1, N-((1r,4r)-4-(3-chloro-4-cyanophenoxy)cyclohexyl)-6-(4-(7'-(2,6-dioxopiperidin-3-yl)-6'-oxo-7',8'-dihydro-2'-H,6'-H-dihydro[azetidine-3,1'-cyclohexane-4',3"-furo[2,3-e]isoindol]-1-yl)piperidin-1-yl)pyridazine-3-carboxamide] | > 10 µM | 69% | 82% | 0.026 nM |  |  |  | 
8 | COc1cc(O[C@H]2CC[C@H](NC(=O)c3ccc(N4CCC(CN5CCC6(CC5)COc5c6ccc6c5n(C)c(=O)n6C5CCC(=O)NC5=O)CC4)nn3)CC2)ccc1C#N (stereo partly shown) [A-P-22] | 47.6 µM |  |  | 0.026 nM | 84% | 69% |  | 
9 | COc1cc(O[C@H]2C(C)(C)[C@H](NC(=O)c3ccc(N4CCC(C)(CN5CC6(CCC7(CC6)COc6c7ccc7c6CN(C6CCC(=O)NC6=O)C7=O)C5)CC4)cc3)C2(C)C)ccc1C#N (relative stereo) [A-P-4] | 3.52 µM | 50% | 78% | 0.19 nM |  |  |  | 
10 | COc1cc(O[C@H]2C(C)(C)[C@H](NC(=O)c3ccc(N4CCC(C)(CN5CCC6(CCc7cc(C(=O)N[C@H]8CCC(=O)NC8=O)c(F)cc7O6)CC5)CC4)cn3)C2(C)C)ccc1C#N [A-P-43, 1'-((1-(6-(((1r,3r)-3-(4-cyano-3-methoxyphenoxy)-2,2,4,4-tetramethylcyclobutyl)carbamoyl)pyridin-3-yl)-4-methylpiperidin-4-yl)methyl)-N-((S)-2,6-dioxopiperidin-3-yl)-7-fluorospiro[chroman-2,4'-piperidin]-6-carboxamide] | 0.36 µM | 33% | 32% | 1550 nM |  |  |  | 
11 | CC1(C)[C@H](NC(=O)c2ccc(N3CCC(CN4CCC5(CCc6cc(C(=O)N[C@H]7CCC(=O)NC7=O)c(F)cc6O5)CC4)CC3)nc2)C(C)(C)[C@H]1Oc1ccc(C#N)c(C(F)(F)F)c1 [A-P-45, 1'-((1-(5-(((1R,3R)-3-(4-cyano-3-(trifluoromethyl)phenoxy)-2,2,4,4-tetramethylcyclobutyl)carbamoyl)pyridin-2-yl)piperidin-4-yl)methyl)-N-((S)-2,6-dioxopiperidin-3-yl)-7-fluorospiro[chroman-2,4'-piperidin]-6-carboxamide] | 0.57 µM | 44% | 77% | 300 nM |  |  |  | 
12 | COc1cc(O[C@H]2C(C)(C)[C@H](NC(=O)c3ccc(N4CCC(CN5CCN6c7ccc(N[C@H]8CCC(=O)NC8=O)cc7OC[C@@H]6C5)CC4)cc3)C2(C)C)ccc1C#N [A-P-100] | 0.38 µM | -20% | 21% | 4700 nM |  |  |  | 
13 | COc1cc(O[C@H]2C(C)(C)[C@H](NC(=O)c3ccc(N4CCC(C)(CN5CCC6(CCc7cc(C(=O)N[C@H]8CCC(=O)NC8=O)c(F)cc7O6)CC5)CC4)nn3)C2(C)C)ccc1C#N [A-P-48, 1'-((1-(6-(((1R,3R)-3-(4-cyano-3-methoxyphenoxy)-2,2,4,4-tetramethylcyclobutyl)carbamoyl)pyridazin-3-yl)-4-methylpiperidin-4-yl)methyl)-N-((S)-2,6-dioxopiperidin-3-yl)-7-fluorospiro[chroman-2,4'-piperidin]-6-carboxamide] | 0.86 µM | -23% | -1% | 330 nM |  |  |  | 
14 | COc1cc(O[C@H]2CC[C@H](NC(=O)c3ccc(N4CCC(N5CCC6(CC5)COc5cc7c(cc56)n(C)c(=O)n7C5CCC(=O)NC5=O)CC4)nn3)CC2)ccc1C#N (stereo partly shown) [A-P-18, N-((1r,4r)-4-(4-cyano-3-methoxyphenoxy)cyclohexyl)-6-(4-(3-(2,6-dioxopyridyl-3-yl)-1-methyl-2-oxo-2,3-dihydro-1H,6H-spiro[benzofuro[5,6-d]imidazole-7,4'-piperidin]-1'-yl)piperidin-1-yl)pyridazine-3-carboxamide] | 120 µM |  |  | < 0.0051 nM | 76% | 73% |  | 
15 | COc1cc(O[C@H]2C(C)(C)[C@H](NC(=O)c3ccc(N4CCC(F)(CN5CC6(CCC7(CC6)COc6c7ccc7c6CN(C6CCC(=O)NC6=O)C7=O)C5)CC4)cc3)C2(C)C)ccc1C#N (relative stereo) [A-P-5] | 1 µM | 38% | 73% | 1.7 nM |  |  |  | 
16 | COc1cc(O[C@H]2C(C)(C)[C@H](NC(=O)c3ccc(N4CCC(CN5CCC6(CCc7cc(C(=O)N[C@H]8CCC(=O)NC8=O)c(F)cc7O6)CC5)(OC)CC4)cc3)C2(C)C)ccc1C#N [A-P-36] | 0.82 µM | 9% | 45% | 1660 nM |  |  |  | 
